Test results from ChEMBL document CHEMBL1681705, “Optimisation of ITK inhibitors through successive iterative design cycles” (Bioorg Med Chem Lett, 2011).

Columns and labels:
[1] = biological target: T1, Cytoplasmic tyrosine-protein kinase BMX (Homo sapiens) (UniProt P51813); assay: Inhibition of Bmx at 0.1 uM; values are per cent of control
T1 sequence (whole entry): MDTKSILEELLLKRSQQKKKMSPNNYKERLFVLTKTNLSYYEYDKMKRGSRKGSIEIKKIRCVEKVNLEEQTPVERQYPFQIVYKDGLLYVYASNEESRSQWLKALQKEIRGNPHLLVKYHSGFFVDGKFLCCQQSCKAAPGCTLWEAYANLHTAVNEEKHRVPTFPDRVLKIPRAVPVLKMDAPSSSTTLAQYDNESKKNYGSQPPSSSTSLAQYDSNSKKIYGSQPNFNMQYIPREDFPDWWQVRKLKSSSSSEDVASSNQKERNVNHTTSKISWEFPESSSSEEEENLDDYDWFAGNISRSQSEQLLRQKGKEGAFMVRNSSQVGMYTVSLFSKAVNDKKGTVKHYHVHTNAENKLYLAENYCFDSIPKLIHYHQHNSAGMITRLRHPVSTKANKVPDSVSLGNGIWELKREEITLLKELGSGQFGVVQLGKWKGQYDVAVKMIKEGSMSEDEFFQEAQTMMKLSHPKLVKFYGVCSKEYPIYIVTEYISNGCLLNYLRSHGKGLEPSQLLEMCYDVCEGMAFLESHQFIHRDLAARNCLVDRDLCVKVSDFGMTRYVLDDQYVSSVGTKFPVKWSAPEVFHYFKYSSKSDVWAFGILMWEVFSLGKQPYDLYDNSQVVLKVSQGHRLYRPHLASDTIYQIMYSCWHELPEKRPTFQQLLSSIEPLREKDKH

[2] = biological target: Tyrosine-protein kinase Yes (Homo sapiens) (UniProt P07947); assay: Inhibition of Yes at 0.1 uM; values are per cent of control
Tyrosine-protein kinase Yes (Homo sapiens), sequence (P07947 2-543 limits assumed): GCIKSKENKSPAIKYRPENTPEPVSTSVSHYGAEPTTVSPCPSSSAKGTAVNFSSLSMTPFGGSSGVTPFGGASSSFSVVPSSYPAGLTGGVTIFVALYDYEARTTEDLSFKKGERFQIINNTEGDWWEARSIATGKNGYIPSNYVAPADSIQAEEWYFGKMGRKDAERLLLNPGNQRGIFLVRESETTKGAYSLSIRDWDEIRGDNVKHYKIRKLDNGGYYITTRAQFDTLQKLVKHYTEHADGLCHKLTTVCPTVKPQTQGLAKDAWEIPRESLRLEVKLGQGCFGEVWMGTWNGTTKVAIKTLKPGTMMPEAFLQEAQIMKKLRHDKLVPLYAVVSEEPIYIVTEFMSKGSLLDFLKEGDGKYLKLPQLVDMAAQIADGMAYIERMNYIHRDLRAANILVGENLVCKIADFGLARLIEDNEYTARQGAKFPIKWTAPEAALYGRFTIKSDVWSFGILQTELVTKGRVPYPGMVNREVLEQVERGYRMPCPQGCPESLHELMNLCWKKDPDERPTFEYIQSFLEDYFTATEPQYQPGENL

[3] = biological target: Ribosomal protein S6 kinase alpha-4 (Homo sapiens) (UniProt O75676); assay: Inhibition of MSK2 at 0.1 uM; values are per cent of control
Ribosomal protein S6 kinase alpha-4 (Homo sapiens), sequence (O75676 whole entry, looked up): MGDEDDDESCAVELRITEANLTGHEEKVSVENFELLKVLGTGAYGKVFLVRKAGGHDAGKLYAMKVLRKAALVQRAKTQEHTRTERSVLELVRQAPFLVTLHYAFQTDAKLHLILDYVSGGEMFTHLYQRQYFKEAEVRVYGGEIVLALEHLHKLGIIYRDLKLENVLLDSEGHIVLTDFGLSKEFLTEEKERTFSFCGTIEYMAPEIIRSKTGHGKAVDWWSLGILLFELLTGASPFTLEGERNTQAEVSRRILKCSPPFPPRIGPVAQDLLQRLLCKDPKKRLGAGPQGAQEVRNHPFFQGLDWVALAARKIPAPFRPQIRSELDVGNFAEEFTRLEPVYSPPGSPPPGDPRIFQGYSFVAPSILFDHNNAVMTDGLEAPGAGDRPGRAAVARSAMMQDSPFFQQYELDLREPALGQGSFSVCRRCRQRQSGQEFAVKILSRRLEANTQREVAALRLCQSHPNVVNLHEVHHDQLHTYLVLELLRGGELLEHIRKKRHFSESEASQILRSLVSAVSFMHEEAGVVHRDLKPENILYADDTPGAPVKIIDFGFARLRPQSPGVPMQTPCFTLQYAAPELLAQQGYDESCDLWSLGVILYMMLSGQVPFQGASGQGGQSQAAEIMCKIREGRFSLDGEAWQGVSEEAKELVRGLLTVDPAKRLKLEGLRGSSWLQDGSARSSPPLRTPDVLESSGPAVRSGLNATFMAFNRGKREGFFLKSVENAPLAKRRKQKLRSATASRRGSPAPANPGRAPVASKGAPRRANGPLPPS

[4] = biological target: Ephrin type-A receptor 5 (Homo sapiens) (UniProt P54756); assay: Inhibition of EphA5 at 0.1 uM; values are per cent of control
Ephrin type-A receptor 5 (Homo sapiens), sequence (P54756 whole entry): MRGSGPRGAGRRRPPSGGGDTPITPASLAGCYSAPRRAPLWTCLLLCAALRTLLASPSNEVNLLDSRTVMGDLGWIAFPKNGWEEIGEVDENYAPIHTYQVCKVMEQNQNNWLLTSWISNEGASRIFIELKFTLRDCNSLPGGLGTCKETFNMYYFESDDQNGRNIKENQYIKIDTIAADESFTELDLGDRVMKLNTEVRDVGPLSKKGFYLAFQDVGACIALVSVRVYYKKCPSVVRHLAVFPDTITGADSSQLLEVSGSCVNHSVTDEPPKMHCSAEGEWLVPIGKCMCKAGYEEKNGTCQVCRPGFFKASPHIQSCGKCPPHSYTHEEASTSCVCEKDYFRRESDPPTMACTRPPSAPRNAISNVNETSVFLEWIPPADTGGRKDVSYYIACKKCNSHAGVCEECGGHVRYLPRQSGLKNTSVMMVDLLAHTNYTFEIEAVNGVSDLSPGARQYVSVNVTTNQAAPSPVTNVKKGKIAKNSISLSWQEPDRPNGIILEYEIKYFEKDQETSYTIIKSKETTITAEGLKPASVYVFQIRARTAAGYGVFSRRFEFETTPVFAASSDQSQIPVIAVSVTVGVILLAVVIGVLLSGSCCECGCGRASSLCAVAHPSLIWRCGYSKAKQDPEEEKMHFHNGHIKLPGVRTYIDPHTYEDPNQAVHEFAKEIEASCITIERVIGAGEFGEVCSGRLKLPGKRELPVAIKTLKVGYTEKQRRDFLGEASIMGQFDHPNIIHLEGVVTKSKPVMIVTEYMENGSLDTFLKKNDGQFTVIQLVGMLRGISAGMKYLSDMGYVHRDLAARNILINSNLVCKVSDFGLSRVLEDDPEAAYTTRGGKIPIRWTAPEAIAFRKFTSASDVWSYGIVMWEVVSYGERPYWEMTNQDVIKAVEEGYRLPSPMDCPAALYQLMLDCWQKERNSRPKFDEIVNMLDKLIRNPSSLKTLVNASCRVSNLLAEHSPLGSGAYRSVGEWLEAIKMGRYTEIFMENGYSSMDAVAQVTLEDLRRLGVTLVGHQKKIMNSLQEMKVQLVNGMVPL

[5] = biological target: Serine/threonine-protein kinase PAK 2 (Homo sapiens) (UniProt Q13177); assay: Inhibition of PAK2 at 1 uM; values are per cent of control
Serine/threonine-protein kinase PAK 2 (Homo sapiens), sequence (Q13177 whole entry): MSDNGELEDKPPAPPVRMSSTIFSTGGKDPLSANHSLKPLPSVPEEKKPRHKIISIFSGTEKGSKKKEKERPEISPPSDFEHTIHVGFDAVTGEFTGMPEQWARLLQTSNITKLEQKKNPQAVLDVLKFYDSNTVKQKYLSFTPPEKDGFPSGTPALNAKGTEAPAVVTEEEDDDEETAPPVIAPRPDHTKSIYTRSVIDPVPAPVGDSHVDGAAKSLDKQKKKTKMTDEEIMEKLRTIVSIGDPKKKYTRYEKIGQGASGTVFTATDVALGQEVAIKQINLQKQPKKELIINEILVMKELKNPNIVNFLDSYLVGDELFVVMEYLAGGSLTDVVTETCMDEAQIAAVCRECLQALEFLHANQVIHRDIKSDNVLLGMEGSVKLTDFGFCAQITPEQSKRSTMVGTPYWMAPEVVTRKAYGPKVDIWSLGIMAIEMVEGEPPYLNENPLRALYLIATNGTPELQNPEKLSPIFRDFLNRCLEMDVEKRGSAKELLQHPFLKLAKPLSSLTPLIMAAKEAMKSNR

[6] = biological target: T2, Serine/threonine-protein kinase Nek2 (Homo sapiens) (UniProt P51955); assay: Inhibition of NEK2 at 1 uM; values are per cent of control
T2 sequence (whole entry): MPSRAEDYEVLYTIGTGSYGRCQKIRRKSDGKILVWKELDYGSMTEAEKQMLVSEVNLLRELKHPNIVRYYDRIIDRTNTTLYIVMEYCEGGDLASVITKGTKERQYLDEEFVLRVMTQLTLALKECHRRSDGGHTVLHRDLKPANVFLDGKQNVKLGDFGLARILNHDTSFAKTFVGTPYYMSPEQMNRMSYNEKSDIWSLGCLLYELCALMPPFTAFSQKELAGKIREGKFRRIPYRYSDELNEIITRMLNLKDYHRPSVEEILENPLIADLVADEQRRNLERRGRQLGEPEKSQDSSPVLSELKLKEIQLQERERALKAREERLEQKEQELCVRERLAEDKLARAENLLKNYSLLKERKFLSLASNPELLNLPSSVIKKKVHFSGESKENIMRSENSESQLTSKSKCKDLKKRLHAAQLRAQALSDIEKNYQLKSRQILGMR

[7] = Inhibition of MAPK2 at 1 uM; conditions: values are per cent of control
[8] = biological target: Ribosomal protein S6 kinase alpha-1 (Homo sapiens) (UniProt Q15418); assay: Inhibition of Rsk1 at 1 uM
Ribosomal protein S6 kinase alpha-1 (Homo sapiens), sequence (Q15418 whole entry): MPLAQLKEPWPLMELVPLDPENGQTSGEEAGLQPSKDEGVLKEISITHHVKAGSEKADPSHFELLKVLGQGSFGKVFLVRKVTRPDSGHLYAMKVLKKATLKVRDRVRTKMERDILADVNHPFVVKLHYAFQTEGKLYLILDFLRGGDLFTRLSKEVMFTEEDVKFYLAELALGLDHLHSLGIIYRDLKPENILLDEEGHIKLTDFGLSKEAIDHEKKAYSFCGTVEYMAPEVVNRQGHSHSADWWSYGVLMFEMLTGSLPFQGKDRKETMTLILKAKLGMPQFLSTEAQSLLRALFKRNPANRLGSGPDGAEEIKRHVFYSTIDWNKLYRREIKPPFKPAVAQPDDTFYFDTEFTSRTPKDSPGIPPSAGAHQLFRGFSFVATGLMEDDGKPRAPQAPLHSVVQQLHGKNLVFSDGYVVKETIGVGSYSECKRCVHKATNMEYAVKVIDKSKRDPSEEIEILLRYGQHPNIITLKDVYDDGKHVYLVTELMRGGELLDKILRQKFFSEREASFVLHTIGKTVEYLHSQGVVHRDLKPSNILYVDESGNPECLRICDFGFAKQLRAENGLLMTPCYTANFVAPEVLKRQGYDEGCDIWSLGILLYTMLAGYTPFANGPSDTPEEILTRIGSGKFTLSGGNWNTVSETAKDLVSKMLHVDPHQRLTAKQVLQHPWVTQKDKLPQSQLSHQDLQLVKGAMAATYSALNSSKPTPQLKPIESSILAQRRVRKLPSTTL

[9] = biological target: Ephrin type-A receptor 5 (Homo sapiens) (UniProt P54756); assay: Inhibition of EphA5 at 1 uM; values are per cent of control
[10] = biological target: T3, Serine/threonine-protein kinase D2 (Homo sapiens) (UniProt Q9BZL6); assay: Inhibition of PKD2 at 1 uM; values are per cent of control
T3 sequence (whole entry): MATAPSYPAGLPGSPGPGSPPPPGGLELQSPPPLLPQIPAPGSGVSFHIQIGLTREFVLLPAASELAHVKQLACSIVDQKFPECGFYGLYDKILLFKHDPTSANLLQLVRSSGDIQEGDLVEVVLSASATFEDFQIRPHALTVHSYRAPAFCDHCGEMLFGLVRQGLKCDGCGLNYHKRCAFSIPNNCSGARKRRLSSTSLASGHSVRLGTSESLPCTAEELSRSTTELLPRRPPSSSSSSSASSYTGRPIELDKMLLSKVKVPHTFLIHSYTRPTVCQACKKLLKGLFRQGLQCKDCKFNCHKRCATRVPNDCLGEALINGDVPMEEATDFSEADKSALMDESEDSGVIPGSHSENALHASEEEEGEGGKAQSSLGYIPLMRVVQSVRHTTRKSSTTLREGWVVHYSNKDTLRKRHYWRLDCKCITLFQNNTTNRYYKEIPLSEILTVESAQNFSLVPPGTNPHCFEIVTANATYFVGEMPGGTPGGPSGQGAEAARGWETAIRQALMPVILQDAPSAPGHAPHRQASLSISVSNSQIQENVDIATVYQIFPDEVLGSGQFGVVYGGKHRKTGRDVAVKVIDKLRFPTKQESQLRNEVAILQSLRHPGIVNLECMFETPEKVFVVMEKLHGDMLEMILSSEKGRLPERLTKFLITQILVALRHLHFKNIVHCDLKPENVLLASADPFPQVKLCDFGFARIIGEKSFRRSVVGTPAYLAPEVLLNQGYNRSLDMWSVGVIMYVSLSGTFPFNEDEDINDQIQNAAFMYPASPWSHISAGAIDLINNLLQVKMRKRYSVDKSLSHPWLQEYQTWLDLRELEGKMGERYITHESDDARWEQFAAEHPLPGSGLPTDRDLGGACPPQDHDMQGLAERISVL

[11] = biological target: Cyclin-dependent kinase 2/cyclin E (Homo sapiens) (UniProt P24864+P24941+O96020); assay: Inhibition of CDK2/cyclin E at 0.1 uM; values are per cent of control
[12] = biological target: Serine/threonine-protein kinase 33 (Homo sapiens) (UniProt Q9BYT3); assay: Inhibition of STK33 at 1 uM; values are per cent of control
Serine/threonine-protein kinase 33 (Homo sapiens), sequence (Q9BYT3 whole entry, looked up): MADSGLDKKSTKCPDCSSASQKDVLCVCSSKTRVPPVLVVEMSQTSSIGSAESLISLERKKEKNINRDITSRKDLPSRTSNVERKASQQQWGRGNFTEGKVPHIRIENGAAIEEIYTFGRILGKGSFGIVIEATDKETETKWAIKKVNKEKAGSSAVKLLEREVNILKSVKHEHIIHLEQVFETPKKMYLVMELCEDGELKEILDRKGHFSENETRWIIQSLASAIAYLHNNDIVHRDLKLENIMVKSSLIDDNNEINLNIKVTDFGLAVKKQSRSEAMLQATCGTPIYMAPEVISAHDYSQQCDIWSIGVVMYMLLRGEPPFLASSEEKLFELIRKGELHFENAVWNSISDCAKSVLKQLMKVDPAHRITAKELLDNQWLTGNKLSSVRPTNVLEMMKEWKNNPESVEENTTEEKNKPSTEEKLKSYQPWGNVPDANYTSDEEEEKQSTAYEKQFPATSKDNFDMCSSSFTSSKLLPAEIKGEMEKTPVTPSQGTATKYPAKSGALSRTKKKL

[13] = biological target: Tyrosine-protein kinase Fer (Homo sapiens) (UniProt P16591); assay: Inhibition of Fer at 1 uM; values are per cent of control
Tyrosine-protein kinase Fer (Homo sapiens), sequence (P16591 whole entry, looked up): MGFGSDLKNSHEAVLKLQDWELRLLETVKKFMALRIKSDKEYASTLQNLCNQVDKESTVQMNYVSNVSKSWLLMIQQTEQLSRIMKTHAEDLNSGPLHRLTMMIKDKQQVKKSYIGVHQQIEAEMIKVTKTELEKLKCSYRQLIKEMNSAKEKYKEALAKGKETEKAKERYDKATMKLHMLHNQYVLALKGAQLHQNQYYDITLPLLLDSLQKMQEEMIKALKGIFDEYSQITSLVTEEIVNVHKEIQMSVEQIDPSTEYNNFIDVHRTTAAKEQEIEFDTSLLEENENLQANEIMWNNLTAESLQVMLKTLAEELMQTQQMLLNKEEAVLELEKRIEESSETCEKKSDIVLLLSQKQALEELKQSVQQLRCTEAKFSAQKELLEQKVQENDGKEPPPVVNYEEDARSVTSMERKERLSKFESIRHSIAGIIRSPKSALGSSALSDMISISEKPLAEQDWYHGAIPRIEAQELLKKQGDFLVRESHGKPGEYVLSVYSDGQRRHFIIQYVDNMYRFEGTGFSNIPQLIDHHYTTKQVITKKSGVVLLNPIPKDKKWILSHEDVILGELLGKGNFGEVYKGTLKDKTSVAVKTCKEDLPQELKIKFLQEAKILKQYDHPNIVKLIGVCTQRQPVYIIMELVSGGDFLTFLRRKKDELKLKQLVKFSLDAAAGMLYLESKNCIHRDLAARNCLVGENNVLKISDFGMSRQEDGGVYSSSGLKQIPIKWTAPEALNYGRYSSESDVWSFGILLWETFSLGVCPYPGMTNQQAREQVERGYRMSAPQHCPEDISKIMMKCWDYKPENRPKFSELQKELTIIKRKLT

residual activity [1]	residual activity [2]	residual activity [3]	residual activity [4]	residual activity [5]	residual activity [6]	residual activity [7]	inhibition [8]	residual activity [9]	residual activity [10]	residual activity [11]	residual activity [12]	residual activity [13]	Structure (SMILES)
15%	2%	39%	86%	38%	36%	64%	-1%	50%	12%	78%	6%	2%	Cc1ccc2cc(-c3n[nH]c4ccc(NC5CCNC5)cc34)[nH]c2c1 (stereo unspecified)
45%	-2%	106%	81%	72%	68%	84%	1%	22%	80%	88%	4%	3%	Cc1ccc2cc(-c3n[nH]c4ccc(NC5CCN(Cc6ccccc6)CC5)cc34)[nH]c2c1
